Active and inactive are the calls of the source.
Legend:
[1] = biological target: Mothers against decapentaplegic homolog 3 (Homo sapiens, UniProt P84022); test: Smad3 binding inhibitors, lysate ELISA, dose response, cell lysate, secondary confirmation, chemiluminescent ELISA, HEK293 lysate (AID 1058); type: functional
Cytochrome P450 2D6 = Cytochrome P450 2D6 (Homo sapiens, UniProt P10635); test: qHTS Assay for Inhibitors and Substrates of Cytochrome P450 2D6. [Related pubchem assays: 410 ]; type: ADME; conditions: read-out: Potency
[2] = A Cell Based Secondary Assay To Explore Cytotoxicity of Compounds that Sensitize Mycobacterium Tuberculosis to Beta-Lactam Antibiotics.; type: functional
[3] = biological target: T1, Microphthalmia-associated transcription factor (Homo sapiens, UniProt O75030); test: TRPM1 promoter luciferase signal decrease, dose response, MITF inhibitor project, cell-based, SK-MEL-5, cherry-picked, set 3 (AID 493073); type: functional
T1 sequence (O75030 whole entry): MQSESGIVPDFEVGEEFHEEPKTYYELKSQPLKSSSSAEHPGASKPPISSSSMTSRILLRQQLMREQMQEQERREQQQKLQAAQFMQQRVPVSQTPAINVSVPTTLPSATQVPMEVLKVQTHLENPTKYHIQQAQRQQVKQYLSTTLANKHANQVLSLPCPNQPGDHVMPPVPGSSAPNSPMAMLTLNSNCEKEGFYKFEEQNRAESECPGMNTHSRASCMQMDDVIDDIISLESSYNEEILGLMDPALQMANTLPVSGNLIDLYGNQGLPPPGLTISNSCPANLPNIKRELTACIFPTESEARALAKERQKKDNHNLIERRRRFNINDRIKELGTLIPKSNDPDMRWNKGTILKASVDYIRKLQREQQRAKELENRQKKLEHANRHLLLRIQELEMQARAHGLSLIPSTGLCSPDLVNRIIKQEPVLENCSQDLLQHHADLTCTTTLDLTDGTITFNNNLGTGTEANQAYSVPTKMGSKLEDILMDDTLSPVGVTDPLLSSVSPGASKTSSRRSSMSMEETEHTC

Paired box protein Pax-8 = Paired box protein Pax-8 (Homo sapiens, UniProt Q06710); test: inhibitors of PAX8-driven TPO luciferase reporter, dose response, RMG-I cells, cherry-pick (AID 687027); type: functional, cell-based;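 also: luciferase reporter driven by Pax8 target thyroperoxidase promoter measured by SteadyGlo luminescence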
Procathepsin L = Procathepsin L (Homo sapiens, UniProt P07711); test: cathepsin L inhibitors, dose response, counter-screen for M1/M17 aminopeptidase inhibitor project, biochemical, QFRET, 1536-well (AID 2214)
Leucine aminopeptidase = biological target: T2, Leucine aminopeptidase (Plasmodium falciparum 3D7, UniProt Q8IL11); test: P. falciparum M17LAP inhibitors, primary screen, biochemical, fluorogenic H-Leu-NHMec substrate, 1536-well (AID 1619); type: functional
T2 sequence (Q8IL11 whole entry): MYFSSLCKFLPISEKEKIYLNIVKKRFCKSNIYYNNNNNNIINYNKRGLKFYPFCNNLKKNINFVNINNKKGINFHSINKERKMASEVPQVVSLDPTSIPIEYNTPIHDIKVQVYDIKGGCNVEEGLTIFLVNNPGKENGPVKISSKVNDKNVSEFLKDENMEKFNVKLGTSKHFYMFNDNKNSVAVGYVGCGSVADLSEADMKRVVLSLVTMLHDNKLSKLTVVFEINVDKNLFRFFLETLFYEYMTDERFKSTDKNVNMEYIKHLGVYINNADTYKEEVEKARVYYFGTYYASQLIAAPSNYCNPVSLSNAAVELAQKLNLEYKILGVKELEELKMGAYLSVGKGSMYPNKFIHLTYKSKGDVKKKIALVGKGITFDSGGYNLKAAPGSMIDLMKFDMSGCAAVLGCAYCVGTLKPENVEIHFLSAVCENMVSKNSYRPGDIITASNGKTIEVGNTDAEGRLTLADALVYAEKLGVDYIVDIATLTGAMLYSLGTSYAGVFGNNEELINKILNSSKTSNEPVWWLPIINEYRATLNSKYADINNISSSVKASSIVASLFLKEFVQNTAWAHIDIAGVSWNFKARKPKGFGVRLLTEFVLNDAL

Aspartyl aminopeptidase = biological target: T3, Aspartyl aminopeptidase (Plasmodium falciparum 3D7, UniProt Q8I2J3); test: Counterscreen for inhibitors of M1 and M17 aminopeptidases: QFRET-based biochemical high throughput dose response assay for inhibitors of the Plasmodium falciparum M18 Aspartyl Aminopeptidase (PFM18AAP). [Related PubChem assays: 1619 (Screening assay (M17LAP inhibitors).), 1445 (Screening assay (M1AAP inhibitors).)]
T3 sequence (Q8I2J3 whole entry): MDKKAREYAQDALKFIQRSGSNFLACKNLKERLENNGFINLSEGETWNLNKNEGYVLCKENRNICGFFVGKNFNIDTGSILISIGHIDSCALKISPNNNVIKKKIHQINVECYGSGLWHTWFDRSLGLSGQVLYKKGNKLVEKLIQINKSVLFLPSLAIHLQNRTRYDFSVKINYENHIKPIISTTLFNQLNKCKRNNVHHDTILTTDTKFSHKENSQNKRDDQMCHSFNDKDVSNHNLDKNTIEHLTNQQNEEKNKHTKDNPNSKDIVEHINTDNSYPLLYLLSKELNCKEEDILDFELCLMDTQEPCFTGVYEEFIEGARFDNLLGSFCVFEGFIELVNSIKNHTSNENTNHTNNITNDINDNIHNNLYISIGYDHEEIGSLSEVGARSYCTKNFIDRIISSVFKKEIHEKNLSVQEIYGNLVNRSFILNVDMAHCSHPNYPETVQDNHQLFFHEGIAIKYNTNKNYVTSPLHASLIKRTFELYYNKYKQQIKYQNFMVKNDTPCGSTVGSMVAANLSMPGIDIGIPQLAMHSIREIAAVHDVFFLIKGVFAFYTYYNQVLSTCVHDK

[4] = NIH-3T3 fibroblast cytotoxicity, dose response, cytotoxicity control, cell-based, fluorescence, Alamar Blue, secondary assay (AID 2327); type: functional;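 also: NIH-3T3 mouse fibroblasts cultured with fluconazole at 8 µg/mL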
Vero = test: host cell cytotoxicity of antiviral hits, dose response, cytotoxicity control for West Nile virus antiviral project, secondary assay (AID 1650); type: functional; conditions: Chlorocebus sabaeus
[5] = C. albicans growth with fluconazole, confirmation, fluorescence, retest (AID 2467); type: functional, cell-based
[6] = biological target: T4, Short transient receptor potential channel 4 (Mus musculus, UniProt Q9QUQ5); test: mouse TRPC4 channel activators, dose response, cell-based, HEK293 TRPC4/mu-opioid, Fluo-4 calcium (AID 434937); type: functional
T4 sequence (Q9QUQ5 whole entry): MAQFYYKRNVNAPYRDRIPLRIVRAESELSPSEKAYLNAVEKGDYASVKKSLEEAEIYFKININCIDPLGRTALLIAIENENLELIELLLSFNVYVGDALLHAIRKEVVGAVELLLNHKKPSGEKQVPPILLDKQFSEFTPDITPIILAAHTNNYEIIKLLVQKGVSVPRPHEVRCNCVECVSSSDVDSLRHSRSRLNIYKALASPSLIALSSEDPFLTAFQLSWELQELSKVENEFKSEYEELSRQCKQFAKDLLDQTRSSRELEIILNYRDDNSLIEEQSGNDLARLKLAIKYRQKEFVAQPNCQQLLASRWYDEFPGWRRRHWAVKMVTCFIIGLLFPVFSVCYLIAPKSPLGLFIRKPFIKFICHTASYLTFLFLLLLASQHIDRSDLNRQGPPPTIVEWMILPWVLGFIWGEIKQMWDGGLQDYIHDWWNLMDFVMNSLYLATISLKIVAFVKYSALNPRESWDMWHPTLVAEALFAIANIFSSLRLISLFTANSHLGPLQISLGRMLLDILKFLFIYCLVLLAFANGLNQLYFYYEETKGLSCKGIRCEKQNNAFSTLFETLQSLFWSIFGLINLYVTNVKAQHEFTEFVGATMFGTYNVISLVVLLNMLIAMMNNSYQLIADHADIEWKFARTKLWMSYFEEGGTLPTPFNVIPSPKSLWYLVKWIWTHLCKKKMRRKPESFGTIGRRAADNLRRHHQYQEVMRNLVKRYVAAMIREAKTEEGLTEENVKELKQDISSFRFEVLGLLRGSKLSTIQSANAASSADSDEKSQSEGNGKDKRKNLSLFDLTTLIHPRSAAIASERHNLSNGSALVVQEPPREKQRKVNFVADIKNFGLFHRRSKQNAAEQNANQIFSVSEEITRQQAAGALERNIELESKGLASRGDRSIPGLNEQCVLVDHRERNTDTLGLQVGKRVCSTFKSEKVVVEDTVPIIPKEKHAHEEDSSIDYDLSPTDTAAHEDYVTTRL

INS1 = test: beta cell apoptosis inhibitors, cytokine rescue, dose response, luminescence, retest (AID 449756); type: functional, cell-based; conditions: Rattus norvegicus;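 also: cell death triggered by IL-1 beta plus TNF-alpha plus IFN-gamma mixture; protective hits raise ATP signal compared with cytokine alone wells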
[7] = biological target: T5, Type-1 angiotensin II receptor (Homo sapiens, UniProt P30556); test: AT1 receptor antagonists, dose response, selectivity assay for APJ receptor antagonist project, cell-based, uHTS hits (AID 463214); type: functional;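 also: antagonist potency against angiotensin II stimulated AT1 response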
T5 sequence (P30556 whole entry): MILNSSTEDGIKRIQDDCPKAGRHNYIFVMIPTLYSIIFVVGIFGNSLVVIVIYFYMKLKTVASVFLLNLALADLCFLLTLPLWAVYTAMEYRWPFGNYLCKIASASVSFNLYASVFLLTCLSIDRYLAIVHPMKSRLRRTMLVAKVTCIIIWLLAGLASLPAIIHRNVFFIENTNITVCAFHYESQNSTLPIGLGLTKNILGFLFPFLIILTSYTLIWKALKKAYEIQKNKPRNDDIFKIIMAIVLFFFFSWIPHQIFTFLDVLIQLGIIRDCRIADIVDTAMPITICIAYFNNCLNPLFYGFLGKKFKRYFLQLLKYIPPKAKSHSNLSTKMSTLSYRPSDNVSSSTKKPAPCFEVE

Beta-galactosidase = Beta-galactosidase (Escherichia coli, UniProt Q8VNN2); test: PubChem AID 485352; type: functional
[8] = biological target: T6, Alkaline phosphatase, tissue-nonspecific isozyme (Homo sapiens, UniProt P05186)
T6 sequence (P05186 whole entry): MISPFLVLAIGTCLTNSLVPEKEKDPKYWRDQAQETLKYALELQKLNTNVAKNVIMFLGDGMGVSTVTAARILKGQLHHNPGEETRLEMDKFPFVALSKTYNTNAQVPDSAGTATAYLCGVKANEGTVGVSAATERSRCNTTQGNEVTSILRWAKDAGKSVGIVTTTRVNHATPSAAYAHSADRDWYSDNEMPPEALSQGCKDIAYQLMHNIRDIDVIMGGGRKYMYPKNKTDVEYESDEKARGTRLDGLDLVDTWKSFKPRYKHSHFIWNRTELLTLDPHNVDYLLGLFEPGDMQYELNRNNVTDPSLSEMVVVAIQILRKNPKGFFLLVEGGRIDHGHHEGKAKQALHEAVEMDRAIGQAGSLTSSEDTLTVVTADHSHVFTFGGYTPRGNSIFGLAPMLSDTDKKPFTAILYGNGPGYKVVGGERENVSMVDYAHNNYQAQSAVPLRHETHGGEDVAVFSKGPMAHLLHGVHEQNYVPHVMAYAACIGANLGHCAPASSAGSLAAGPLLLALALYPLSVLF

[9] = biological target: Heat shock protein HSP 90-alpha (Homo sapiens, UniProt P07900); type: functional, organism-based
[10] = Artemis endonuclease inhibitor potency, dose response, biochemical, fluorescence intensity (AID 720701); type: functional;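 also: Artemis endonuclease enzyme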
[11] = biological target: G-protein coupled receptor 55 (Homo sapiens, UniProt Q9Y2T6); test: GPR55 antagonists blocking LPI-driven arrestin recruitment, primary screen, imaging, U2OS, beta-arrestin-GFP, LPI agonist (AID 2013); type: functional;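 also: antagonist potency measured as reduced agonist-driven arrestin aggregation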
[12] = Luminescence Cell-Based Dose Retest to Confirm Inhibitors of Cancer Stem Cells. [Related pubchem assays (depositor defined):AID2717, AID2721]; type: functional; conditions: Homo sapiens

Chain of Mothers against decapentaplegic homolog 3 (P84022 whole entry): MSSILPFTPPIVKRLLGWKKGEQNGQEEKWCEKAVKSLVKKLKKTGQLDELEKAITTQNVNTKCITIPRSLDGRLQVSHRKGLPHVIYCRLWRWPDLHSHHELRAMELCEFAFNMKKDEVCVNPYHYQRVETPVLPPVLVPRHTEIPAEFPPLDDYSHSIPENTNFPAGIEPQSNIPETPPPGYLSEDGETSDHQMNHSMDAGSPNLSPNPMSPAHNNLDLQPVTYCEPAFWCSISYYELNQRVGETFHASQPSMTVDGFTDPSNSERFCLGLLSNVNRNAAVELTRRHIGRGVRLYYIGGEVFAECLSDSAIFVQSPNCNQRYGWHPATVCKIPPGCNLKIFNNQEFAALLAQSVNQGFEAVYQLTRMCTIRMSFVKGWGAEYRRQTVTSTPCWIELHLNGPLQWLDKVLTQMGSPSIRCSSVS
Chain of Procathepsin L (P07711 whole entry): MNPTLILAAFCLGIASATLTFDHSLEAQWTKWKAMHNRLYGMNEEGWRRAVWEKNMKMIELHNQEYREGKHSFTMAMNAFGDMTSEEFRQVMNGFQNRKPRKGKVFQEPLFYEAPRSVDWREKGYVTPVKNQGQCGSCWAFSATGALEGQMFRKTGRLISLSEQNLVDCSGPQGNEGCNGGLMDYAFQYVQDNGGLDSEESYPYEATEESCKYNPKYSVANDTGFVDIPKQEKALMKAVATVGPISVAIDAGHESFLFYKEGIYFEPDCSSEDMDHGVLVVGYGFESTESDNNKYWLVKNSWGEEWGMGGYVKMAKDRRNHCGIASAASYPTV
Chain of Cytochrome P450 2D6 (P10635 whole entry): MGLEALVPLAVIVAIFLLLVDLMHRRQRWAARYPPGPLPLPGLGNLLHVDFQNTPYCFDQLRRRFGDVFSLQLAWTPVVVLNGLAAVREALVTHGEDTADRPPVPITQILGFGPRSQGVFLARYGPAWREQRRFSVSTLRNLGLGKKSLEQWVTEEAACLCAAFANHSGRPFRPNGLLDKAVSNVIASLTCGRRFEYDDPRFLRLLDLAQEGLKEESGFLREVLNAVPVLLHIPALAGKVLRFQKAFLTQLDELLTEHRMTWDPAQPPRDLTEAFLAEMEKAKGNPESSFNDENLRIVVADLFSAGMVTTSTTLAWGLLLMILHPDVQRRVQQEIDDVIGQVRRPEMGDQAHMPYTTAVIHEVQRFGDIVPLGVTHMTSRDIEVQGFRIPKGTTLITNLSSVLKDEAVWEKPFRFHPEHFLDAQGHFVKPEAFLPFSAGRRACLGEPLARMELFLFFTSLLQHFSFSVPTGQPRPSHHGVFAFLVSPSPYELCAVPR
Chain of G-protein coupled receptor 55 (Q9Y2T6 whole entry): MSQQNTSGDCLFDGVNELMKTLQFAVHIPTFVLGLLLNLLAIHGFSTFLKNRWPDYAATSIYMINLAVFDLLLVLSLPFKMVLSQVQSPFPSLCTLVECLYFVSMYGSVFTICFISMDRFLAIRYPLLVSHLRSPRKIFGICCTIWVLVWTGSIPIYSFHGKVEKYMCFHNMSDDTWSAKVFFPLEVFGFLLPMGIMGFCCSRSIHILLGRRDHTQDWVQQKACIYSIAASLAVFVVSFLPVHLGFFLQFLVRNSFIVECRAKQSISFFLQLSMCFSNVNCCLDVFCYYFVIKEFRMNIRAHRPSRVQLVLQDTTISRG
Chain of Paired box protein Pax-8 (Q06710 whole entry): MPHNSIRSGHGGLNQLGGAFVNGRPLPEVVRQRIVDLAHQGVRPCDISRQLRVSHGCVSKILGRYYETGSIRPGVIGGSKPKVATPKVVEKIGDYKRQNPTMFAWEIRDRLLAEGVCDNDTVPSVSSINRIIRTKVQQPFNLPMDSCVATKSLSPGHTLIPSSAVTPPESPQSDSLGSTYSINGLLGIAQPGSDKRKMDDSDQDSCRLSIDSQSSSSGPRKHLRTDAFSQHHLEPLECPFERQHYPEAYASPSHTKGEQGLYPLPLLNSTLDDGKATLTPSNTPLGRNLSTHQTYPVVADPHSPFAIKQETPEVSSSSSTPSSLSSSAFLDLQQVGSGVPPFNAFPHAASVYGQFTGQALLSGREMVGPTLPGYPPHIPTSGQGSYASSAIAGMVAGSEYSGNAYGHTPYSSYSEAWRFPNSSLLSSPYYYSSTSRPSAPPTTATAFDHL
Chain of Beta-galactosidase (Q8VNN2 whole entry): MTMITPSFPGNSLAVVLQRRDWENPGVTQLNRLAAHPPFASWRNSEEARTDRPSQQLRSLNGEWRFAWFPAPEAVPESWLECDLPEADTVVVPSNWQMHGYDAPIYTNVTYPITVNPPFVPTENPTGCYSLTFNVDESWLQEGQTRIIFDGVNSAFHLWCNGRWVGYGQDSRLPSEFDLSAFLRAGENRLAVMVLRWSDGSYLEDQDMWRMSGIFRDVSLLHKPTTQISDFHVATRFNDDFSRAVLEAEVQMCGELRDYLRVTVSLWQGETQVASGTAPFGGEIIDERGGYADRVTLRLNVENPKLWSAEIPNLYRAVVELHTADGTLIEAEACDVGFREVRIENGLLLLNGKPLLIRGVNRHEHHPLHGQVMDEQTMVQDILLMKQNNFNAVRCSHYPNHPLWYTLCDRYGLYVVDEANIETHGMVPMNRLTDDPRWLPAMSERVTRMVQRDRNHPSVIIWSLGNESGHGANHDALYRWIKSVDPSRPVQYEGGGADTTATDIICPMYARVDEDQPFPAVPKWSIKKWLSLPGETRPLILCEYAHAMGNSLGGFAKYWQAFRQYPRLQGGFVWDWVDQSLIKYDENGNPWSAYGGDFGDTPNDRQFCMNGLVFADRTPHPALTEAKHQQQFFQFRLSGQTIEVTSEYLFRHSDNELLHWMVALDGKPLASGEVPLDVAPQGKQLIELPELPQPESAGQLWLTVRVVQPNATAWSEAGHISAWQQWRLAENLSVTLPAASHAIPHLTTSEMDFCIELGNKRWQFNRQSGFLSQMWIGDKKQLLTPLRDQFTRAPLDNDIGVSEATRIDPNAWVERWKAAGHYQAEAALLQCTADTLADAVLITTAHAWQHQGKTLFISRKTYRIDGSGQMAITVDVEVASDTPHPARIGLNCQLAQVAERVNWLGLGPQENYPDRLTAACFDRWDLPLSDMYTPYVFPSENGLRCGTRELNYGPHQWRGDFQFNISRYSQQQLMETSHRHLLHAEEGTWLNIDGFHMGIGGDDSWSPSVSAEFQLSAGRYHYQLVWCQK

Structure (SMILES): COc1ccc(C(c2cc3c(cc2O)OCO3)N2CCOCC2)c(OC)c1 (stereo unspecified)
- IC50 [1]: > 40 µM (not active)

Structure (SMILES): COc1ccc(OC2C=CC(c3ccccc3)OC2CO)cc1 (stereo unspecified)
- AC50 (Cytochrome P450 2D6): 6.31 µM (inconclusive)

Structure (SMILES): O=C1C=CC(=C(c2ccc(O)c(O)c2)c2ccccc2S(=O)(=O)O)C=C1O [PYROCATECHOL VIOLET]
- IC50 [1]: 3.28 µM (not active)

Structure (SMILES): C=C1C(=O)O[C@@H]2[C@H]1[C@@H](OC(=O)/C(C)=C/C)C/C(C)=C\C(=O)/C=C(\C)[C@@H]2O
- CC50 [2]: 4.26 µM (active)
- AC50 [3]: 7.07 µM (active)
- AC50 (Paired box protein Pax-8): 4.03 µM (active)

Structure (SMILES): COC(=O)c1c(-c2cc(C)ccc2C)csc1NC(=O)C1CC=CCC1C(=O)O (stereo unspecified)
- IC50 (Procathepsin L): > 59.6 µM (not active)
- IC50 (Leucine aminopeptidase): < 1 µM (active)
- IC50 (Aspartyl aminopeptidase): > 73.5 µM (not active)

Structure (SMILES): COc1cc2c(cc1O)CCN[C@H]2C
- AC50 (Cytochrome P450 2D6): 20 µM (inconclusive)

Structure (SMILES): Cc1sc(NC(=O)C2CC(Cl)=CCC2C(=O)O)c(C#N)c1C (stereo unspecified)
- IC50 (Procathepsin L): > 59.6 µM (not active)
- IC50 (Leucine aminopeptidase): 1.73 µM (active)
- IC50 (Aspartyl aminopeptidase): > 73.5 µM (not active)

Structure (SMILES): CC(C)(C)C(=O)NC(=S)NNC(=O)c1ccc(-c2ccccc2)cc1
- EC50 [4]: 3.25 µM (active)
- CC50 (Vero): 4.57 µM (active)
- EC50 [5]: 0.694 µM (active)
- EC50 [6]: 1.5 µM (active)
- AC50 (INS1): 2.14 µM (active)
- IC50 [7]: 10.8 µM (active)
- EC50 (Beta-galactosidase): > 40 µM (inactive)

Structure (SMILES): CCCCc1ccc(NC(=S)NCCc2ccc(S(N)(=O)=O)cc2)cc1
- EC50 [8]: > 100 µM (not active)

Structure (SMILES): c1ccc(-c2c(-c3ccccc3)n(Cc3ccco3)c3ncnc(NCCCn4ccnc4)c23)cc1
- EC50 [8]: 63 µM (not active)
- AC50 [9]: 2.53 µM (active)
- IC50 [10]: 17.8 µM (active)
- IC50 [11]: 2.09 µM (active)
- AC50 [12]: 5.23 µM (active)

Source: ChEMBL document CHEMBL1201862, “PubChem BioAssay data set” (2004)
